Where two headings read alike, the source gives them in different places.

The nature of data set [1]: logP of additives A and B of the protective films.
For data set [2] the following is noted: reference liquid; cited from earlier work.

As for `O=P(Oc1ccccc1)(Oc1ccccc1)Oc1ccccc1-c1ccccc1` [BDP, Biphenyldiphenyl phosphate], in data set [1] (additive of protective film), the lipophilicity (logP) (usually a log measure of how a compound divides between an organic and an aqueous phase) came to 7.3.
Take `CCC(COC(=O)c1ccccc1)(COC(=O)c1ccccc1)COC(=O)c1ccccc1` [Compound 16]: in data set [1], the logP was found to be 7.9.
The same measure, in the same setting: under `CCOC(=O)COC(=O)c1ccccc1C(=O)OCC` [EPEG, Ethylphthalyl ethylglycolate] stands 2.3.
Still for that read-out and setting: under `O=C(OCC(COC(=O)c1ccccc1)(COC(=O)c1ccccc1)COC(=O)c1ccccc1)c1ccccc1` [PETB, pentaerythritol-tetrabenzoate] stands 9.9; under `O=P(Oc1ccccc1)(Oc1ccccc1)Oc1ccccc1` [TPP, Triphenyl phosphate], 5.6.
For `ICI` [diiodomethane], in data set [2], the γLd is 51.0 mN/m, the γLh is recorded as 0.0 mN/m and the γLp is reported as 0.0 mN/m.
Take `C[N+](=O)[O-]` [nitromethane]: in data set [2], the γLd is on record as 18.3 mN/m, the γLh is reported as 0.0 mN/m and the γLp was 17.7 mN/m.
For `O` [water], in data set [2], the γLd is listed as 30.4 mN/m, the γLh is recorded as 42.4 mN/m and the γLp was 0.0 mN/m.
